Reference: US10076116B2, “N-cycloalkyl-N-(biheterocyclymethylene)-(thio)carboxamide derivatives” (BAYER CROPSCIENCE AKTIENGESELLSCHAFT, priority 2013, dated 2018)

Key:
Puccinia recondita = test: In vivo preventive test on Puccinia recondita (brown rust on wheat); settings: for Efficacy (Table C2) / protection: in very similar conditions; for Efficacy (Table C2): prior-art analogues; for Efficacy at 100 ppm (Table C1) / Efficacy at 500 ppm (Table C1): very similar conditions, formulated in DMF with 2% of alkylarylpolyglycolether
Protocol: Example C: In Vivo Preventive Test on Puccinia recondita (Brown Rust on Wheat) […]
The young plants of wheat are treated by spraying the active ingredient prepared as described above. […]
After 24 hours, the plants are contaminated by spraying the leaves with an aqueous suspension of Puccinia recondita spores. The contaminated wheat plants are incubated for 24 hours at 20° C. and at 100% relative humidity and then for 10 days at 20° C. and at 70-80% relative humidity.
The test is evaluated 11 days after the inoculation. 0% means an efficacy which corresponds to that of the control plants while an efficacy of 100% means that no disease is observed.

[1] = log P by HPLC on reversed-phase column (C 18), EEC Directive 79/831 Annex V.A8; assay type: physicochemical; settings: HPLC C 18, 40° C., 0.1% aqueous formic acid and acetonitrile, gradient 10% to 90% acetonitrile; for chromatographic logP: reversed-phase HPLC column (C 18)
Protocol: In table 1, the log P values were determined in accordance with EEC Directive 79/831 Annex V.A8 by HPLC (High Performance Liquid Chromatography) on a reversed-phase column (C 18), using the method described below: Temperature: 40° C.; Mobile phases: 0.1% aqueous formic acid and acetonitrile; linear gradient from 10% acetonitrile to 90% acetonitrile. Calibration was carried out using unbranched alkan-2-ones (comprising 3 to 16 carbon atoms) with known log P values (determination of the log P values by the retention times using linear interpolation between two successive alkanones). lambda-max-values were determined using UV-spectra from 200 nm to 400 nm and the peak values of the chromatographic signals.

[2] = dose of 500 and 100 ppm, analogues of WO2012/059497

logP [1]	Compound	further results
3.68	Cn1nc(C(F)F)c(C(=O)N(Cc2ncc(C(F)(F)F)cc2-c2ccco2)C2CC2)c1F [I.30]	
4.73	Cn1nc(C(F)F)c(C(=O)N(Cc2ncc(C(F)(F)F)cc2-c2cc3ccccc3s2)C2CC2)c1F [I.25]	
4.46	Cn1nc(C(F)F)c(C(=O)N(Cc2ncc(C(F)(F)F)cc2-c2csc3ccccc23)C2CC2)c1F [I.20]	
3.48	Cn1nc(C(F)F)c(C(=O)N(Cc2ncc(C(F)(F)F)cc2-c2ccoc2)C2CC2)c1F [I.26]	
2.76	Cn1nc(C(F)F)c(C(=O)N(Cc2sc3ccccc3c2-c2cncnc2)C2CC2)c1F [I.54]	
2.76	Cn1nc(C(F)F)c(C(=O)N(Cc2ncc(C(F)(F)F)cc2-c2cc3ccccc3nc2O)C2CC2)c1F [I.28]	
4.64	Cn1nc(C(F)F)c(C(=S)N(Cc2nn(-c3ccccc3)cc2-c2ccc3c(ccn3C)c2)C2CC2)c1F [I.05]	
3.26	Cn1nc(C(F)F)c(C(=O)N(Cc2nn(-c3ccccc3)cc2C2=CCOCC2)C2CC2)c1F [I.02]	
1.66	Cn1cncc1-c1c(CN(C(=O)c2c(C(F)F)nn(C)c2F)C2CC2)sc2ccccc12 [I.48]	
3.25	Cn1nc(C(F)F)c(C(=O)N(Cc2ncc(C(F)(F)F)cc2-c2cnc3ccccc3c2)C2CC2)c1F [I.27]	
3.15	Cn1nc(C(F)F)c(C(=O)N(Cc2nn(-c3ccccc3)cc2C2CCOCC2)C2CC2)c1F [I.04]	
4.20	Cc1occc1-c1c(CN(C(=O)c2c(C(F)F)nn(C)c2F)C2CC2)sc2ccccc12 [I.52]	
3.89	Cn1ccc(-c2c(CN(C(=O)c3c(C(F)F)nn(C)c3F)C3CC3)sc3ccccc23)c1 [I.51]	

More lines, now with the values behind:

Compound	logP [1]	further results
Cn1cc(C(=O)N(Cc2cn(-c3ccccc3)c3ccccc23)C2CC2)c(C(F)F)n1 [18 from WO-2009/016222, N-cyclopropyl-3-(difluoromethyl)-1-methyl-N-[(1-phenyl-1H-indol-3-yl)methyl]-1H-pyrazole-4-carboxamide]		Efficacy (Table C2) (Puccinia recondita; dose 125 ppm): 0%; Efficacy (Table C2) (Puccinia recondita; dose 500 ppm): 0%; protection (Puccinia recondita; dose of 500 and 125 ppm, analogues of WO2009/016222 and WO2008/037789): good (at least 70%) to no protection
Cn1cc(C(=O)N(Cc2ncc(C(F)(F)F)cc2-c2csc3ccccc23)C2CC2)c(C(F)F)n1 [I.42]	3.92	
Cc1nc(-c2ccc(Cl)cc2)sc1CN(C(=O)c1c(C(F)F)nn(C)c1F)C1CC1 [167 from WO2012/059497, N-{[2-(4-chlorophenyl)-4-methyl-1,3-thiazol-5-yl]methyl}-N-cyclopropyl-3-(difluoromethyl)-5-fluoro-1-methyl-1H-pyrazole-4-carboxamide]		Efficacy at 100 ppm (Table C1) (Puccinia recondita): 0%; Efficacy at 500 ppm (Table C1) (Puccinia recondita): 0%; protection (Puccinia recondita; [2]): good (at least 80%) to no protection
Cc1ccc(-c2ccsc2CN(C(=O)c2sc(C)nc2C(F)F)C2CC2)s1 [I.06]	4.08	
Cc1cc(C(=O)N(Cc2sccc2-c2ccc(C)s2)C2CC2)c(C)o1 [I.10]	4.54	
Cn1cc(C(=O)N(Cc2ncc(C(F)(F)F)cc2-c2ccco2)C2CC2)c(C(F)F)n1 [I.40]	3.29	
CC(=O)c1ccc(-c2cc(C(F)(F)F)cnc2CN(C(=O)c2c(C(F)F)nn(C)c2F)C2CC2)s1 [I.24]	3.48	
Cc1ccc(-c2ccsc2CN(C(=O)c2ccsc2Br)C2CC2)s1 [I.08]	4.69	
Cn1nc(C(F)F)c(C(=O)N(Cc2cc3ccccc3n2-c2ccccc2)C2CC2)c1F [155 from WO2012/059497, N-cyclopropyl-3-(difluoromethyl)-5-fluoro-1-methyl-N-[(1-phenyl-1H-indol-2-yl)methyl]-1H-pyrazole-4-carboxamide]		Efficacy at 100 ppm (Table C1) (Puccinia recondita): 0%; Efficacy at 500 ppm (Table C1) (Puccinia recondita): 20%; protection (Puccinia recondita; [2]): good (at least 80%) to no protection
Cc1ccc(-c2cc(C(F)(F)F)cnc2CN(C(=O)c2c(C(F)F)nn(C)c2F)C2CC2)o1 [I.33]	3.69	
Cn1nc(C(F)F)c(C(=S)N(Cc2ncc(C(F)(F)F)cc2-c2cnc3ccccc3c2)C2CC2)c1F [I.35]	3.90	
Cc1ccc(-c2ccsc2CNC2CC2)s1 [IIb.01, N-[(5-methyl-2,3′-bithiophen-2′-yl)methyl]cyclopropanamine]		chromatographic logP [1]: 1.39
Cn1cc(C(=O)N(Cc2cc(Br)cnc2Sc2nccs2)C2CC2)c(C(F)F)n1 [Example I.58]	3.09	
Cn1cc(C(=O)N(Cc2ncc(C(F)(F)F)cc2-c2coc3ccccc23)C2CC2)c(C(F)F)n1 [I.43]	3.73	
Cn1nc(C(F)F)c(C(=O)N(Cc2ncc(C(F)(F)F)cc2-c2ccsc2)C2CC2)c1F [I.17, N-cyclopropyl-3-(difluoromethyl)-5-fluoro-1-methyl-N-{[3-(3-thienyl)-5-(trifluoromethyl)pyridin-2-yl]methyl}-1H-pyrazole-4-carboxamide]		chromatographic logP [1]: 3.67
Cn1cc(C(=O)N(Cc2ncc(C(F)(F)F)cc2-c2ccoc2)C2CC2)c(C(F)F)n1 [I.46]	3.15	

Compound	logP [1]	further results
Cn1cc(C(=O)N(Cc2ncc(C(F)(F)F)cc2-c2cnc3ccccc3c2)C2CC2)c(C(F)F)n1 [I.44]	2.82	
Cn1cc(C(=O)N(Cc2cc(Br)cnc2Oc2cnc3ccccc3c2)C2CC2)c(C(F)F)n1 [Example I.56]	3.09	
Cn1cc(C(=O)N(Cc2ncc(C(F)(F)F)cc2-c2cccs2)C2CC2)c(C(F)F)n1 [I.39]	3.46	
Cc1ccc(-c2ccsc2CN(C(=O)c2cn(C)cc2C(F)(F)F)C2CC2)s1 [I.09]	4.18	
Cc1noc(C)c1-c1c(CN(C(=O)c2c(C(F)F)nn(C)c2F)C2CC2)sc2ccccc12 [Example I.55]	3.51	
Cn1nc(C(F)F)c(C(=O)N(Cc2ncc(C(F)(F)F)cc2Cl)C2CC2)c1F [N-{[3-chloro-5-(trifluoromethyl)pyridin-2-yl]methyl}-N-cyclopropyl-3-(difluoromethyl)-5-fluoro-1-methyl-1H-pyrazole-4-carboxamide]		chromatographic logP [1]: 3.35
CC(C)c1nc(-c2c(CN(C(=O)c3c(C(F)F)nn(C)c3F)C3CC3)sc3ccccc23)cs1 [I.49]	4.61	
Cn1cc(C(=O)N(Cc2cc(Br)cnc2Sc2cnc3ccccc3c2)C2CC2)c(C(F)F)n1 [Example I.57]	3.27	
Cc1csc(-c2cc(C(F)(F)F)cnc2CN(C(=O)c2c(C(F)F)nn(C)c2F)C2CC2)c1 [I.32]	4.27	
Cn1nc(C(F)F)c(C(=S)N(Cc2ncc(C(F)(F)F)cc2-c2ccoc2)C2CC2)c1F [I.36]	4.03	
Cc1ccc(-c2ccsc2CN(C(=O)c2nn(C)nc2C(F)F)C2CC2)s1 [I.07]	4.11	
Cn1cc(C(=O)N(Cc2ncc(C(F)(F)F)cc2-c2ccnc3cc(Cl)ccc23)C2CC2)c(C(F)F)n1 [I.45]	3.27	
Cc1ccsc1-c1cc(C(F)(F)F)cnc1CN(C(=O)c1c(C(F)F)nn(C)c1F)C1CC1 [I.34]	4.11	
Cn1nc(C(F)F)c(C(=O)N(Cc2ncc(C(F)(F)F)cc2-c2ccc(Cl)s2)C2CC2)c1F [I.18]	4.54	
Cc1cscc1-c1cc(C(F)(F)F)cnc1CN(C(=O)c1cn(C)nc1C(F)F)C1CC1 [I.38]	3.69	
Cc1cscc1-c1cc(C(F)(F)F)cnc1CN(C(=O)c1c(C(F)F)nn(C)c1F)C1CC1 [I.22]	4.12	
